Experimental data taken from patent US20070155746A1, “NOVEL SUBSTITUTED PYRIDINYLOXY AND PYRIMIDINYLOXY AMIDES USEFUL AS INHIBITORS OF PROTEIN KINASES” (KALYPSYS, INC., priority 2005, published 2007).

Key:
Type in all cases: biochemical
VEGFR2 kinase = molecular target: T1, VEGFR2 kinase (Homo sapiens, UniProt P35968); assay: In vitro VEGFR2 kinase assay
T1 construct: purchased Invitrogen Inc PV3660
Protocol: (§1) In Vitro VEGFR2 and PDGFRP Kinase Assays
(§2) 2.5 μl of ADP Quest assay buffer (DiscoverX Inc., cat. #90-0071) containing 20 ng VEGFR2 kinase (Invitrogen Inc, cat. #PV3660) or 25 ng PDGFRβ kinase (Invitrogen Inc., cat. #P3082) is dispensed to wells of a 1536 multi-well, black solid plate. 60 nl of 100× concentration of test compound in DMSO is dispensed to the well by passive pin transfer and incubated for 10 minutes at room temperature (approx. 22° C.). 2.5 μl of ADP Quest assay buffer containing 0.25 μg of poly Glu:Tyr (4:1) substrate peptide (Upstate Inc., cat. #12-440) and 60 μM ATP is then dispensed and the kinase reaction allowed to incubate at 30° C. for 2 hours. The assay plates are sealed and maintained in a humidified environment. After the 2 hour incubation, 2 μl of ADP Quest assay reagent A, followed by 2 μl of assay reagent B, is added. After an additional 30 minute incubation at room temperature, fluorescence intensity is measured on a Molecular Devices Aquest multi-mode plate reader or other suitable plate reader (fluorescence excitation filter: 530/25 [Peak(nm)/FWHM passband(nm)]; dichroic beamsplitter: 561 nm longpass; fluorescence emission filter: 580/10 [Peak(nm)/FWHM passband(nm)]. The assay measures the conversion of a non-fluoresecent molecule to fluorescent resorufin, which correlates with kinase activity. Negative control activity is measured with DMSO lacking any test compound. The positive control is [N-(3-trifluoromethyl-4-chlorophenyl)-N′-(4-(2-methylcarbamoyl-pyridin-4-yl)oxyphenyl)urea], aka Bay 43-9006. Efficacy is measured as a percentage of positive control activity.

[1] = molecular target: T2, human B-Raf protein kinase (Homo sapiens, UniProt P15056); assay: In vitro B-Raf/Mek1 composite kinase assay
T2 construct: GST (N); purchased Upstate Inc. 14-530 (B-Raf); 14-420 (Mek1)
T2 sequence (P15056 416-766): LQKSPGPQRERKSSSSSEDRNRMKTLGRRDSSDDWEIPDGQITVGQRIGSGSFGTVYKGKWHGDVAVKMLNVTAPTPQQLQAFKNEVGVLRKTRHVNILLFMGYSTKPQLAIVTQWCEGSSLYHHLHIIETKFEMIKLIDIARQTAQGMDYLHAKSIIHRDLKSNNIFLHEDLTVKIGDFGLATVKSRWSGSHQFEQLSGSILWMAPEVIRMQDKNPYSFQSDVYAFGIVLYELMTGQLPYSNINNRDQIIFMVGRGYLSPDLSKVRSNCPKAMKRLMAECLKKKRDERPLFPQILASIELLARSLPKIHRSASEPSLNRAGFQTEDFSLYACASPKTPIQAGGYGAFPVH
Protocol: In Vitro B-Raf/Mek1 Composite Kinase Assay
2.5 μl of B-Raf kinase buffer (20 mM MOPS [pH 7.2], 25 mM sodium glycerophosphate, 2 mM EGTA [pH 8.0], 1 mM sodium orthovanadate, 1 mM dithiothreitol, 10 mM MgCl2, 0.03% Brij-35, 0.3 mg/ml bovine serum albumin) containing lng of recombinant, N-terminal GST-tagged human B-Raf protein kinase (Δ1-415, Upstate Inc., cat. #14-530) is dispensed to wells of a 1536 multi-well white solid plate. 60 nl of 100× concentration of test compound in DMSO is dispensed to the well by passive pin transfer and incubated for 15 minutes at room temperature (approx. 22° C.). […] The assay plates are sealed and maintained in a humidified environment. After 2 hours, 2.5 μl of PKLight protein kinase assay reagent (Cambrex, cat. #LT07-501) is dispensed. After an additional 5 minute incubation at room temperature, luminescence activity is measured on a Molecular Devices Analyst multi-mode plate reader or other suitable plate reader. Kinase inhibition results in less ATP depletion, and therefore increased luminescence signal. Negative control activity is measured with DMSO lacking any test compound. The positive control is [N-(3-trifluoromethyl-4-chlorophenyl)-N′-(4-(2-methylcarbamoyl-pyridin-4-yl)oxyphenyl)urea], aka Bay 43-9006. Efficacy is measured as a percentage of positive control activity.

PDGFRβ kinase = molecular target: T3, PDGFRβ kinase (Homo sapiens, UniProt P09619); assay: In vitro PDGFRβ kinase assay
T3 construct: purchased Invitrogen Inc. P3082
T3 sequence (P09619 33-1106): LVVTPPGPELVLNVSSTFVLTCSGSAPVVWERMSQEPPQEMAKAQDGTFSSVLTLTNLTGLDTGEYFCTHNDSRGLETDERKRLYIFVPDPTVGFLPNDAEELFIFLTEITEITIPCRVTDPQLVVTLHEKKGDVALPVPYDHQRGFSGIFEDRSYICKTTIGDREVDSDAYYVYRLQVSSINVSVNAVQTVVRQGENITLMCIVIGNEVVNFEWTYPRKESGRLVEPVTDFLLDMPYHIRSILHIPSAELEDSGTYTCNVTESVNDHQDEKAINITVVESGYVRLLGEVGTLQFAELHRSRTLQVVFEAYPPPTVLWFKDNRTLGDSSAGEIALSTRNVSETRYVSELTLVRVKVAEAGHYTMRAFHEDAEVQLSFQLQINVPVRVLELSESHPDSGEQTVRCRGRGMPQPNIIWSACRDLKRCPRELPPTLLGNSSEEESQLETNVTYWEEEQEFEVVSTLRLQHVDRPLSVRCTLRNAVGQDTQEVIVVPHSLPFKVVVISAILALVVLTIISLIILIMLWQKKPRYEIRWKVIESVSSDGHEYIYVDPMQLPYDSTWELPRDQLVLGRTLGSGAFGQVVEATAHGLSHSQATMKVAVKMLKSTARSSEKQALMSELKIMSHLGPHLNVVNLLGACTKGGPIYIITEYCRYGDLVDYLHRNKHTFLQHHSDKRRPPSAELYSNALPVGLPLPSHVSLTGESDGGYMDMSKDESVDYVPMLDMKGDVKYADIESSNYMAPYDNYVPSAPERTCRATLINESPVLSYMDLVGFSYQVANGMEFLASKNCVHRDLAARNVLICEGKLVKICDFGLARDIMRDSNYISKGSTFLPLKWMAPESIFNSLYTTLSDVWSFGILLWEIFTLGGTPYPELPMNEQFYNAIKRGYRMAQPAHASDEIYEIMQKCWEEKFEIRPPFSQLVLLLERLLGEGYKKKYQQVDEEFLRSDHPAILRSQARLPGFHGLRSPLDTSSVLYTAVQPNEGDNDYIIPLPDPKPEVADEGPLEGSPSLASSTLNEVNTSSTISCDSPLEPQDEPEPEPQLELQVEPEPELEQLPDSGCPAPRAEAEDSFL
Protocol: as §1, §2

T1 sequence (P35968 20-1356): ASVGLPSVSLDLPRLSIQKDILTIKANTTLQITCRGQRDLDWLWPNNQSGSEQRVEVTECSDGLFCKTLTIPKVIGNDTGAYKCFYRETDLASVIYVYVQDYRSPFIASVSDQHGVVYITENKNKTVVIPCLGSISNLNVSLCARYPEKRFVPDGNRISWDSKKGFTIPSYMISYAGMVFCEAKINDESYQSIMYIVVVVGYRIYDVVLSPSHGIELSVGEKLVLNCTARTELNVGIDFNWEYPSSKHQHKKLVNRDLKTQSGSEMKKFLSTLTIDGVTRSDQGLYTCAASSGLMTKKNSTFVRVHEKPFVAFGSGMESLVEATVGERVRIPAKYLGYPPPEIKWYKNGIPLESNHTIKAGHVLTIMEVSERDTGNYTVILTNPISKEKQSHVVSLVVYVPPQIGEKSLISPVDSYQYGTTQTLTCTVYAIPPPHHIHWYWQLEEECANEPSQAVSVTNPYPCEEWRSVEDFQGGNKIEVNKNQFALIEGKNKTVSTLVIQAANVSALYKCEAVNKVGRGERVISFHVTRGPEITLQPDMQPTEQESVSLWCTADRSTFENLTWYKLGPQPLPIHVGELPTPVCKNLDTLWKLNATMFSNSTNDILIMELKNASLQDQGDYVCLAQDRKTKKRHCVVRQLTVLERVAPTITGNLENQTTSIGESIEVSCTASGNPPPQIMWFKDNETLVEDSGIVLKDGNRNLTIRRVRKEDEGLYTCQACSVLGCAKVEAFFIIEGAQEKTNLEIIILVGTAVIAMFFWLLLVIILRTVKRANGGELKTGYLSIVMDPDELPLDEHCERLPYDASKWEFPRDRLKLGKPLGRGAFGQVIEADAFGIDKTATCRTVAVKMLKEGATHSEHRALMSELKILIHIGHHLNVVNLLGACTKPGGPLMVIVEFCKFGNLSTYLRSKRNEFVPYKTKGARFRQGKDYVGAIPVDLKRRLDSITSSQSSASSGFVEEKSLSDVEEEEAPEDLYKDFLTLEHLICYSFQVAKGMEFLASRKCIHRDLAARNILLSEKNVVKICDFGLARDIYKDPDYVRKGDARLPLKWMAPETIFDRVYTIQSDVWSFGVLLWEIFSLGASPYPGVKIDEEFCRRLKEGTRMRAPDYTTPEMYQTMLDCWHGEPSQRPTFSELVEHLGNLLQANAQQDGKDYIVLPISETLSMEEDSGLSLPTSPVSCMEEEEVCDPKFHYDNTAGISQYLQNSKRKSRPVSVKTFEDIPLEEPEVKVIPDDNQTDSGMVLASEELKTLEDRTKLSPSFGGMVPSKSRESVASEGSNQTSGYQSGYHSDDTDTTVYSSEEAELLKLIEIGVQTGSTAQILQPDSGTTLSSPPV

With COc1ccc(C(=O)Nc2cccc(Oc3ccnc(-c4nnco4)c3)c2)cc1OC1CCCC1 [Example 9, N-(3-(2-(1,3,4-Oxadiazol-2-yl)pyridin-4-yloxy)phenyl)-3-(cyclopentyloxy)-4-methoxybenzamide] the IC50 (VEGFR2 kinase) was ≤ 10 µM, the IC50 [1] was > 10 µM and the IC50 (PDGFRβ kinase) was ≤ 10 µM.
In the case of CCCOc1cccc(C(=O)Nc2cccc(Oc3ccnc(-c4cnn(C)c4)c3)c2)c1 [Example 73, N-(3-(2-(1-Methyl-1H-pyrazol-4-yl)pyridin-4-yloxy)phenyl)-3-propoxybenzamide], the IC50 (VEGFR2 kinase) is reported as > 10 µM, the IC50 [1] is reported as > 10 µM and the IC50 (PDGFRβ kinase) is reported as > 10 µM.
CCOc1cccc(C(=O)Nc2cccc(Oc3ccnc(-c4cnn(C)c4)c3)c2)c1 [Example 72, 3-Ethoxy-N-(3-(2-(1-methyl-1H-pyrazol-4-yl)pyridin-4-yloxy)phenyl)benzamide] was tested, and the IC50 (VEGFR2 kinase) was ≤ 10 µM, the IC50 [1] was ≤ 10 µM and the IC50 (PDGFRβ kinase) was ≤ 10 µM.
CCOc1cc(OCC)cc(C(=O)Nc2cccc(Oc3ccnc(-c4nnco4)c3)c2)c1 [Example 7, N-(3-(2-(1,3,4-Oxadiazol-2-yl)pyridin-4-yloxy)phenyl)-3,5-diethoxybenzamide] was tested, and the IC50 (VEGFR2 kinase) was > 10 µM, the IC50 [1] was > 10 µM and the IC50 (PDGFRβ kinase) was > 10 µM.
In the case of O=C(Cc1ccc(F)c(C(F)(F)F)c1)Nc1cccc(Oc2ccnc(-c3nnco3)c2)c1 [Example 1, N-(3-(2-(1,3,4-Oxadiazol-2-yl)pyridin-4-yloxy)phenyl)-2-(4-fluoro-3-(trifluoromethyl)phenyl)acetamide], the IC50 (VEGFR2 kinase) is reported as ≤ 10 µM, the IC50 [1] is reported as > 10 µM and the IC50 (PDGFRβ kinase) is reported as > 10 µM.
With Cn1cc(-c2cc(Oc3cccc(NC(=O)c4cccc5c4OCO5)c3)ccn2)cn1 [Example 29, N-(3-(2-(1-Methyl-1H-pyrazol-4-yl)pyridin-4-yloxy)phenyl)benzo[d][1,3]dioxole-4-carboxamide] the IC50 (VEGFR2 kinase) was > 10 µM, the IC50 [1] was ≤ 10 µM and the IC50 (PDGFRβ kinase) was > 10 µM.
In the case of Cn1cc(-c2cc(Oc3cccc(NC(=O)c4cccc5cc[nH]c45)c3)ccn2)cn1 [Example 71, N-(3-(2-(1-Methyl-1H-pyrazol-4-yl)pyridin-4-yloxy)phenyl)-1H-indole-7-carboxamide], the IC50 (VEGFR2 kinase) is reported as > 10 µM, the IC50 [1] is reported as ≤ 10 µM and the IC50 (PDGFRβ kinase) is reported as > 10 µM.
With CCOc1ccc(C(=O)Nc2cccc(Oc3ccnc(-c4nnco4)c3)c2)cc1OCC [Example 8, N-(3-(2-(1,3,4-Oxadiazol-2-yl)pyridin-4-yloxy)phenyl)-3,4-diethoxybenzamide] the IC50 (VEGFR2 kinase) was ≤ 10 µM, the IC50 [1] was > 10 µM and the IC50 (PDGFRβ kinase) was > 10 µM.
Cn1cc(-c2cc(Oc3cccc(NC(=O)c4ccccc4OC(F)(F)F)c3)ccn2)cn1 [Example 39, N-(3-(2-(1-Methyl-1H-pyrazol-4-yl)pyridin-4-yloxy)phenyl)-2-(trifluoromethoxy)benzamide] was tested, and the IC50 (VEGFR2 kinase) was > 10 µM, the IC50 [1] was ≤ 10 µM and the IC50 (PDGFRβ kinase) was > 10 µM.
For Cn1cc(-c2cc(Oc3cccc(NC(=O)c4ccc5[nH]cnc5c4)c3)ccn2)cn1 [Example 64, N-(3-(2-(1-Methyl-1H-pyrazol-4-yl)pyridin-4-yloxy)phenyl)-1H-benzo[d]imidazole-5-carboxamide], the IC50 (VEGFR2 kinase) was ≤ 10 µM, the IC50 [1] was ≤ 10 µM and the IC50 (PDGFRβ kinase) was > 10 µM.
With Cn1cc(-c2cc(Oc3cccc(NC(=O)c4ccc5ccccc5c4)c3)ccn2)cn1 [Example 53, N-(3-(2-(1-Methyl-1H-pyrazol-4-yl)pyridin-4-yloxy)phenyl)-2-naphthamide] the IC50 (VEGFR2 kinase) was > 10 µM, the IC50 [1] was > 10 µM and the IC50 (PDGFRβ kinase) was > 10 µM.
In the case of Cn1cc(-c2cc(Oc3cccc(NC(=O)c4cccc(-c5ccncc5)c4)c3)ccn2)cn1 [Example 34, N-(3-(2-(1-Methyl-1H-pyrazol-4-yl)pyridin-4-yloxy)phenyl)-3-(pyridin-4-yl)benzamide], the IC50 (VEGFR2 kinase) is reported as > 10 µM, the IC50 [1] is reported as > 10 µM and the IC50 (PDGFRβ kinase) is reported as > 10 µM.
With CN(C)c1cccc(C(=O)Nc2cccc(Oc3ccnc(-c4cnn(C)c4)c3)c2)c1 [Example 28, 3-(Dimethylamino)-N-(3-(2-(1-methyl-1H-pyrazol-4-yl)pyridin-4-yloxy)phenyl)benzamide] the IC50 (VEGFR2 kinase) was > 10 µM, the IC50 [1] was > 10 µM and the IC50 (PDGFRβ kinase) was > 10 µM.
CCOc1cc(OCC)cc(C(=O)Nc2cccc(Oc3cc(-c4nc(C(F)(F)F)c[nH]4)ncn3)c2)c1 [Example 18, 3,5-Diethoxy-N-(3-(6-(4-(trifluoromethyl)-1H-imidazol-2-yl)pyrimidin-4-yloxy)phenyl)benzamide] was tested, and the IC50 (VEGFR2 kinase) was ≤ 10 µM, the IC50 [1] was > 10 µM and the IC50 (PDGFRβ kinase) was ≤ 10 µM.
With Cn1cc(-c2cc(Oc3cccc(NC(=O)c4cccc(-n5cccc5)c4)c3)ccn2)cn1 [Example 58, N-(3-(2-(1-Methyl-1H-pyrazol-4-yl)pyridin-4-yloxy)phenyl)-3-(1H-pyrrol-1-yl)benzamide] the IC50 (VEGFR2 kinase) was > 10 µM, the IC50 [1] was > 10 µM and the IC50 (PDGFRβ kinase) was > 10 µM.
In the case of Cn1cc(-c2cc(Oc3cccc(NC(=O)c4ccccc4C(=O)c4ccccc4)c3)ccn2)cn1 [Example 49, 2-Benzoyl-N-(3-(2-(1-methyl-1H-pyrazol-4-yl)pyridin-4-yloxy)phenyl)benzamide], the IC50 (VEGFR2 kinase) is reported as ≤ 10 µM, the IC50 [1] is reported as > 10 µM and the IC50 (PDGFRβ kinase) is reported as ≤ 10 µM.
In the case of O=C(Nc1cccc(Oc2ccnc(-c3nnco3)c2)c1)c1cccc(Oc2ccccc2)c1 [Example 4, N-(3-(2-(1,3,4-Oxadiazol-2-yl)pyridin-4-yloxy)phenyl)-3-phenoxybenzamide], the IC50 (VEGFR2 kinase) is reported as ≤ 10 µM, the IC50 [1] is reported as > 10 µM and the IC50 (PDGFRβ kinase) is reported as ≤ 10 µM.
With CCOc1cc(OCC)cc(C(=O)Nc2cc(Oc3cc(-c4cnn(C)c4)ncn3)ccc2F)c1 [Example 17, 3,5-Diethoxy-N-(2-fluoro-5-(6-(1-methyl-1H-pyrazol-4-yl)pyrimidin-4-yloxy)phenyl)benzamide] the IC50 (VEGFR2 kinase) was > 10 µM, the IC50 [1] was > 10 µM and the IC50 (PDGFRβ kinase) was > 10 µM.
In the case of Cn1cc(-c2cc(Oc3cccc(NC(=O)c4ccc5c(c4)OCO5)c3)ccn2)cn1 [Example 61, N-(3-(2-(1-Methyl-1H-pyrazol-4-yl)pyridin-4-yloxy)phenyl)benzo[d][1,3]dioxole-5-carboxamide], the IC50 (VEGFR2 kinase) is reported as > 10 µM, the IC50 [1] is reported as ≤ 10 µM and the IC50 (PDGFRβ kinase) is reported as > 10 µM.
Cn1cc(-c2cc(Oc3cccc(NC(=O)c4cccc(C(F)(F)F)c4)c3)ccn2)cn1 [Example 44, N-(3-(2-(1-Methyl-1H-pyrazol-4-yl)pyridin-4-yloxy)phenyl)-3-(trifluoromethyl)benzamide] was tested, and the IC50 (VEGFR2 kinase) was > 10 µM, the IC50 [1] was > 10 µM and the IC50 (PDGFRβ kinase) was > 10 µM.
With Cn1cc(-c2cc(Oc3cccc(NC(=O)c4cccc(C#N)c4)c3)ccn2)cn1 [Example 46, 3-Cyano-N-(3-(2-(1-methyl-1H-pyrazol-4-yl)pyridin-4-yloxy)phenyl)benzamide] the IC50 (VEGFR2 kinase) was > 10 µM, the IC50 [1] was ≤ 10 µM and the IC50 (PDGFRβ kinase) was > 10 µM.
For Cn1cc(-c2cc(Oc3cccc(NC(=O)c4cccc(-n5cnnc5)c4)c3)ccn2)cn1 [Example 38, N-(3-(2-(1-Methyl-1H-pyrazol-4-yl)pyridin-4-yloxy)phenyl)-3-(4H-1,2,4-triazol-4-yl)benzamide], the IC50 (VEGFR2 kinase) was ≤ 10 µM, the IC50 [1] was ≤ 10 µM and the IC50 (PDGFRβ kinase) was > 10 µM.
With CCOc1cc(OCC)cc(C(=O)Nc2cccc(Oc3ccnc(C(=O)NC)c3)c2)c1 [Example 14, 4-(3-(3,5-Diethoxybenzamido)phenoxy)-N-methylpicolinamide] the IC50 (VEGFR2 kinase) was > 10 µM, the IC50 [1] was > 10 µM and the IC50 (PDGFRβ kinase) was > 10 µM.
With Cn1cc(-c2cc(Oc3cccc(NC(=O)c4ccc(OC(F)(F)F)cc4)c3)ncn2)cn1 [Example 23, N-(3-(6-(1-Methyl-1H-pyrazol-4-yl)pyrimidin-4-yloxy)phenyl)-4-(trifluoromethoxy)benzamide] the IC50 (VEGFR2 kinase) was > 10 µM, the IC50 [1] was > 10 µM and the IC50 (PDGFRβ kinase) was > 10 µM.
